“And” between values parts separate entries of the source, which are not always exact repeats. Equal values may be shown once. Read-outs that look alike come from different tables or passages of the source.
What was measured:
[1] = tested on: PGE1-binding sites (3H-PGE1-receptors) on human hypernephroma cells; assay: Saturation binding of 3H-PGE1 to cultured hypernephroma cells (Scatchard analysis); conditions: for Bmax, 3H-PGE1 binding, Table II: individual cell lines; for Bmax (binding capacity), 3H-PGE1 binding / Kd: mean of cell lines; for Kd: read-out: Kd (dissociation constant), 3H-PGE1 binding
[2] = tested on: PG binding sites on human hypernephroma cells; assay: Time course of specific 3H-PG binding (association, dissociation); conditions: 3H-iloprost, 3H-PGE1 each 84 nM, 3H-PGE2 45 nM; stable for at least 80 min
[3] = molecular target: T1, PGI2-binding sites (3H-iloprost receptors) on human hypernephroma cells (Homo sapiens, UniProt P43119); assay: Saturation binding of 3H-iloprost to cultured hypernephroma cells (Scatchard analysis); conditions: for Bmax, 3H-iloprost binding, Table I: individual cell lines; for Bmax (binding capacity), 3H-iloprost binding: mean of cell lines
T1 construct: endogenous in cells; host or cells: primary cultures of human renal cell carcinoma (hypernephroma) cells, one line per patient

[4] = tested on: PGE2-binding sites (3H-PGE2-receptors) on human hypernephroma cells; assay: Saturation binding of 3H-PGE2 to cultured hypernephroma cells (Scatchard analysis); conditions: for Bmax, 3H-PGE2 binding, Table III: individual cell lines; for Bmax (binding capacity), 3H-PGE2 binding / Kd: mean of cell lines; for Kd: read-out: Kd (dissociation constant), 3H-PGE2 binding
[5] = tested on: PG biosynthesis of human hypernephroma cells; assay: Conversion of exogenously added 14C-AA to its metabolites (radiothinlayer chromatography); format: cell-based; conditions: for 14C-AA conversion to 12-HETE, Table IV / 14C-AA conversion to PGD2, Table IV / 14C-AA conversion to PGE2, Table IV / 14C-AA conversion to PGF2alpha, Table IV / 14C-AA conversion to TXB2, Table IV / AA (%) remaining, Table IV: individual cell lines
[6] = tested on: human hypernephroma cells; assay: Cellular viability (phase-contrast microscopy and Trypan Blue exclusion); format: cell-based; conditions: ASA incubation for 24 h
[7] = ASA-treated group (group 2), ASA 0.5 mg 10-6 cells for 24 h
[8] = ASA-treated group irradiated (group 4)
[9] = ASA-treated group irradiated (group 4), listed as 3H-PGE1
[10] = control group (group 1), no ASA, no irradiation
[11] = control group (group 1), no ASA, no irradiation, listed as 3H-PGE1
[12] = control group irradiated (group 3), 60Co 1.0 Gy min-1 over 10 min, assay about 2 h after
[13] = ASA-treated group (group 2), patients 1,3,4,6,8,9,11 in order
[14] = ASA-treated group irradiated (group 4), patients 3,4,6,9,11 in order

T1 sequence (P43119 whole entry): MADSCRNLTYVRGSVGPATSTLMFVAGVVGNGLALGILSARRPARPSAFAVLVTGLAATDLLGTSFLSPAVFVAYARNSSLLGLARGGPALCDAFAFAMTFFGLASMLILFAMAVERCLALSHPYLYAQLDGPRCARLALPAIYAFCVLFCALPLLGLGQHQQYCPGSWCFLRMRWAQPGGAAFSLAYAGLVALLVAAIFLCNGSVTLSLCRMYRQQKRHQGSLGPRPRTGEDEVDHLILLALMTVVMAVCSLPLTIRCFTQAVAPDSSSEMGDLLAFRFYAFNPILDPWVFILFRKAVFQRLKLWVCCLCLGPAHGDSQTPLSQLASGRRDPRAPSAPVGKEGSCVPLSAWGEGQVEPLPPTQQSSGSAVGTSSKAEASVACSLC

For CCCCC[C@H](O)/C=C/[C@H]1[C@H](O)CC(=O)[C@@H]1CCCCCCC(=O)O [PGE1], the “Bmax, 3H-PGE1 binding, Table II” value ([1]; ASA (group 2), patients 1,3,4,5,6,7,8,9,10,11 in order, listed as 3H-PGE1) was 811 fmol mg-1 protein and 923 fmol mg-1 protein and 1076 fmol mg-1 protein and 1019 fmol mg-1 protein and 1367 fmol mg-1 protein and 897 fmol mg-1 protein and 1773 fmol mg-1 protein and 736 fmol mg-1 protein and 1064 fmol mg-1 protein and 1171 fmol mg-1 protein, the “Bmax (binding capacity), 3H-PGE1 binding” value [1, 7] was 1084 +/- 303 fmol mg-1 protein and the “Bmax (binding capacity), 3H-PGE1 binding” value ([1]; ASA-treated group (group 2), ASA 0.5 mg 10-6 cells for 24 h, listed as 3H-PGE1) was 1084 fmol mg-1 protein. The Kd [1, 7] was 2.8 ± 1.3 nM, the “Bmax (binding capacity), 3H-PGE1 binding” value [1, 8] was 699 +/- 240 fmol mg-1 protein and the “Bmax (binding capacity), 3H-PGE1 binding” value [1, 9] was 699 fmol mg-1 protein. For the same compound, the Kd [1, 9] was 3 nM, the “Bmax, 3H-PGE1 binding, Table II” value ([1]; control (group 1), patients 1,3,4,5,6,7,8,9,10,11 in order, listed as 3H-PGE1) was 781 fmol mg-1 protein and 372 fmol mg-1 protein and 978 fmol mg-1 protein and 911 fmol mg-1 protein and 694 fmol mg-1 protein and 893 fmol mg-1 protein and 1041 fmol mg-1 protein and 643 fmol mg-1 protein and 555 fmol mg-1 protein and 685 fmol mg-1 protein and the “Bmax (binding capacity), 3H-PGE1 binding” value [1, 10] was 755 +/- 206 fmol mg-1 protein. The “Bmax (binding capacity), 3H-PGE1 binding” value [1, 11] was 755 fmol mg-1 protein, the Kd [1, 11] was about 4 nM and the Kd [1, 10] was 3.7 ± 2.7 nM. The “Bmax (binding capacity), 3H-PGE1 binding” value [1, 12] was 266 +/- 153 fmol mg-1 protein, the “Bmax (binding capacity), 3H-PGE1 binding” value ([1]; control group irradiated (group 3), 60Co 1.0 Gy min-1 over 10 min, assay about 2 h after, listed as 3H-PGE1) was 266 fmol mg-1 protein and the Kd [1, 12] was 5 ± 5 nM. For the same compound, the “Bmax, 3H-PGE1 binding, Table II” value ([1]; irradiation, ASA (group 4), patients 3,6,7,9,10,11 in order, listed as 3H-PGE1) was 679 fmol mg-1 protein and 867 fmol mg-1 protein and 615 fmol mg-1 protein and 268 fmol mg-1 protein and 884 fmol mg-1 protein and 879 fmol mg-1 protein, the “Bmax, 3H-PGE1 binding, Table II” value ([1]; irradiation, control (group 3), patients 3,6,7,9,10,11 in order, listed as 3H-PGE1) was 267 fmol mg-1 protein and 504 fmol mg-1 protein and 301 fmol mg-1 protein and 137 fmol mg-1 protein and 319 fmol mg-1 protein and 68 fmol mg-1 protein and the “time to reach binding equilibrium” value [2] was at most 20 min.

With CC#CCC(C)[C@H](O)/C=C/[C@@H]1[C@H]2C/C(=C/CCCC(=O)O)C[C@H]2C[C@H]1O (stereo partly shown) [iloprost] the “Bmax, 3H-iloprost binding, Table I” value ([3]; ASA (group 2), patients 1,2,3,4,5,6,7,8,9,10,11 in order, listed as 3H-iloprost) was 813 fmol mg-1 protein and 855 fmol mg-1 protein and 987 fmol mg-1 protein and 960 fmol mg-1 protein and 916 fmol mg-1 protein and 1047 fmol mg-1 protein and 2024 fmol mg-1 protein and 1301 fmol mg-1 protein and 442 fmol mg-1 protein and 1023 fmol mg-1 protein and 861 fmol mg-1 protein, the “Bmax (binding capacity), 3H-iloprost binding” value [3, 7] was 1021 fmol mg-1 protein and the “Bmax (binding capacity), 3H-iloprost binding” value [3, 8] was 766 +/- 452 fmol mg-1 protein. The “Bmax (binding capacity), 3H-iloprost binding” value ([3]; ASA-treated group irradiated (group 4), listed as 3H-iloprost) was 766 fmol mg-1 protein, the “Bmax, 3H-iloprost binding, Table I” value ([3]; control (group 1), patients 1,2,3,4,5,6,7,8,9,10,11 in order, listed as 3H-iloprost) was 741 fmol mg-1 protein and 635 fmol mg-1 protein and 876 fmol mg-1 protein and 732 fmol mg-1 protein and 808 fmol mg-1 protein and 806 fmol mg-1 protein and 649 fmol mg-1 protein and 407 fmol mg-1 protein and 382 fmol mg-1 protein and 829 fmol mg-1 protein and 756 fmol mg-1 protein and the “Bmax (binding capacity), 3H-iloprost binding” value [3, 10] was 693 fmol mg-1 protein. For the same compound, the “Bmax (binding capacity), 3H-iloprost binding” value [3, 12] was 325 fmol mg-1 protein, the “Bmax, 3H-iloprost binding, Table I” value ([3]; irradiation, ASA (group 4), patients 3,4,6,7,9,10,11 in order, listed as 3H-iloprost) was 489 fmol mg-1 protein and 354 fmol mg-1 protein and 867 fmol mg-1 protein and 1551 fmol mg-1 protein and 364 fmol mg-1 protein and 1162 fmol mg-1 protein and 576 fmol mg-1 protein and the “Bmax, 3H-iloprost binding, Table I” value ([3]; irradiation, control (group 3), patients 3,4,6,7,9,10,11 in order, listed as 3H-iloprost) was 332 fmol mg-1 protein and 287 fmol mg-1 protein and 432 fmol mg-1 protein and 699 fmol mg-1 protein and 204 fmol mg-1 protein and 203 fmol mg-1 protein and 118 fmol mg-1 protein. The “time to reach binding equilibrium” value [2] was at most 20 min.

For CCCCC[C@H](O)/C=C/[C@H]1[C@H](O)CC(=O)[C@@H]1C/C=C\CCCC(=O)O [PGE2], the “Bmax, 3H-PGE2 binding, Table III” value ([4]; ASA (group 2), patients 1,3,4,5,6,8,9,10,11 in order, listed as 3H-PGE2) was 650 fmol mg-1 protein and 162 fmol mg-1 protein and 858 fmol mg-1 protein and 780 fmol mg-1 protein and 1104 fmol mg-1 protein and 986 fmol mg-1 protein and 666 fmol mg-1 protein and 324 fmol mg-1 protein and 441 fmol mg-1 protein, the “Bmax (binding capacity), 3H-PGE2 binding” value [4, 7] was 663 +/- 309 fmol mg-1 protein and the “Bmax (binding capacity), 3H-PGE2 binding” value ([4]; ASA-treated group (group 2), ASA 0.5 mg 10-6 cells for 24 h, listed as 3H-PGE2) was 663 fmol mg-1 protein. For the same compound, the Kd [4, 7] was 2.2 ± 1.5 nM, the “Bmax (binding capacity), 3H-PGE2 binding” value [4, 8] was 287 fmol mg-1 protein and the Kd [4, 8] was 3.5 nM. The “Bmax, 3H-PGE2 binding, Table III” value ([4]; control (group 1), patients 1,3,4,5,6,8,9,10,11 in order, listed as 3H-PGE2) was 563 fmol mg-1 protein and 143 fmol mg-1 protein and 478 fmol mg-1 protein and 650 fmol mg-1 protein and 930 fmol mg-1 protein and 438 fmol mg-1 protein and 534 fmol mg-1 protein and 313 fmol mg-1 protein and 398 fmol mg-1 protein, the “Bmax (binding capacity), 3H-PGE2 binding” value [4, 10] was 494 +/- 221 fmol mg-1 protein and the “Bmax (binding capacity), 3H-PGE2 binding” value ([4]; control group (group 1), no ASA, no irradiation, listed as 3H-PGE2) was 494 fmol mg-1 protein. The Kd [4, 10] was 4.2 ± 2.5 nM, the “Bmax (binding capacity), 3H-PGE2 binding” value [4, 12] was 148 +/- 66 fmol mg-1 protein and the “Bmax (binding capacity), 3H-PGE2 binding” value ([4]; control group irradiated (group 3), 60Co 1.0 Gy min-1 over 10 min, assay about 2 h after, listed as 3H-PGE2) was 148 fmol mg-1 protein. For the same compound, the Kd [4, 12] was 4.7 ± 3.6 nM, the “Bmax, 3H-PGE2 binding, Table III” value ([4]; irradiation, ASA (group 4), patients 3,6,8,9,10,11 in order, listed as 3H-PGE2) was 181 fmol mg-1 protein and 336 fmol mg-1 protein and 338 fmol mg-1 protein and 466 fmol mg-1 protein and 232 fmol mg-1 protein and 170 fmol mg-1 protein and the “Bmax, 3H-PGE2 binding, Table III” value ([4]; irradiation, control (group 3), patients 3,6,8,9,10,11 in order, listed as 3H-PGE2) was 63 fmol mg-1 protein and 209 fmol mg-1 protein and 218 fmol mg-1 protein and 112 fmol mg-1 protein and 96 fmol mg-1 protein and 189 fmol mg-1 protein. The “time to reach binding equilibrium” value [2] was at most 30 min.

CCCCC[C@H](O)/C=C/[C@@H]1[C@H]2C/C(=C/CCCC(=O)O)O[C@H]2C[C@H]1O [PGI2] was tested, and the “Bmax (binding capacity), 3H-iloprost binding” value [3, 10] was 693 +/- 164 fmol mg-1 protein and the “Bmax (binding capacity), 3H-iloprost binding” value [3, 12] was 325 +/- 194 fmol mg-1 protein.

With CC(=O)Oc1ccccc1C(=O)O [ASA, acetylsalicylic acid] the “14C-AA conversion to 12-HETE, Table IV” value [5, 13] was 6.9% and 4.2% and 7.3% and 5.5% and 5.3% and 4.9% and 8.8%, the “14C-AA conversion to PGD2, Table IV” value [5, 13] was 1.3% and 0.9% and 0.2% and 0.5% and 0.4% and 0.6% and 0.8% and the “14C-AA conversion to PGE2, Table IV” value [5, 13] was 1.8% (2×) and 1.1% and 2.2% and 0.7% and 1.5% and 1.3%. The “14C-AA conversion to PGF2alpha, Table IV” value [5, 13] was 1.7% and 0.7% and 0.8% and 0.2% and 0.3% (2×) and 0.5%, the “14C-AA conversion to TXB2, Table IV” value [5, 13] was 1.2% and 0.8% and 1.7% and 1.3% (2×) and 2.3% and 1.5% and the “AA (%) remaining, Table IV” value [5, 13] was 66.5% and 78.2% and 72.9% and 78.5% (2×) and 82.8% and 81.0%. For the same compound, the “14C-AA conversion to PGF2alpha” value ([5]; ASA-treated group (group 2), mean (control group […])) was 0.6%, the “14C-AA conversion to 12-HETE” value ([5]; ASA-treated group (group 2), mean (control group 3.7)) was 6.1% and the “14C-AA conversion to TXB2” value ([5]; ASA-treated group (group 2), mean (control group 8.0)) was 1.4%. For the same compound, the “14C-AA conversion to 12-HETE, Table IV” value [5, 14] was 4.9% and 5.1% (2×) and 4.8% (2×), the “14C-AA conversion to PGD2, Table IV” value [5, 14] was 0.3% and 0.9% and 0.8% and 0.5% and 0.4% and the “14C-AA conversion to PGE2, Table IV” value [5, 14] was 0.8% and 1.6% and 1.9% and 1.1% and 1.8%. For the same compound, the “14C-AA conversion to PGF2alpha, Table IV” value [5, 14] was 0.5% and 0.9% and 0.2% and 0.8% and 0.4%, the “14C-AA conversion to TXB2, Table IV” value [5, 14] was 1.3% and 1.2% and 1.1% and 1.5% and 0.6% and the “AA (%) remaining, Table IV” value [5, 14] was 82.9% and 74.3% and 81.2% and 73.7% and 79.4%. The “14C-AA conversion to PGF2alpha” value ([5]; ASA-treated group irradiated (group 4), mean (control irradiated 2.7)) was 0.6%, the “14C-AA conversion to PGD2” value ([5]; ASA-treated group irradiated (group 4), mean (control irradiated 3.0)) was 0.6% and the “14C-AA conversion to 12-HETE” value ([5]; ASA-treated group irradiated (group 4), mean (control irradiated 4.1)) was 4.9%. The “14C-AA conversion to TXB2” value ([5]; ASA-treated group irradiated (group 4), mean (control irradiated 7.4)) was 1.1%, the “14C-AA conversion to PGE2” value ([5]; ASA-treated group irradiated (group 4), mean (control irradiated 9.0)) was 1.4% and the cellular viability [6] was “unchanged”.

— PMC1968618, “Acetylsalicylic acid (ASA) protects the prostaglandin-cAMP-system of human hypernephroma cells against irradiation-induced alterations” (British Journal of Cancer, 1993)
